One assay has as its system VDR. In words: Western blot of VDR expression after gemcitabine. In kind it is cell-based, human. Conditions: gemcitabine 50 nM 18 hrs. On the procedure:
(§1) Western Blotting. BxPC3, Panc1, and CFPAC1 cells were treated with vehicle or gemcitabine (50 nM) for 18 hrs. Cells were harvested, washed in PBS and lysed in NP40 lysis buffer (1% NP40/PBS/10% glycerol) with protease and phosphatase inhibitors. Protein concentrations were determined with MicroBCA Assay (Pierce Biotechnology; 23224 and 23228) and then SDS sample buffer was added to the lysates. 40 μg of boiled lysates was separated by SDS-PAGE and then transferred onto Immobilon P membrane (Millipore; IPVH00010). Antibodies used for immunoblotting were obtained from: VDR (Epitomics; 3277-1), γH2AX (Upstate Biotechnologies, now Millipore; 05-636), Rad51 (Genetex; GTX70230, gift), p300 (Santa Cruz Biotechnologies; SC-584), and TAO1 kinase (Bethyl Labs; A300-524A).
Next, the levels of VDR protein were compared in BxPC3, CFPAC1, and Panc1 cells to see if the amount of expression might correlate with gemcitabine sensitivity.

In a further assay the test system is CFPAC1 cells. Put plainly: Clonogenic survival assay, gemcitabine kill curves. In kind it is cell-based. Conditions: Homo sapiens. As for the experimental part: (§2) Cell culture and chemicals. Panc1, BxPC3, and CFPAC1 cells were purchased from American Type Culture Collection (ATCC) and banked in house until use. Cell lines were cultured in DMEM/10% FBS supplemented with 2 mM glutamine and 1% penicillin, streptomycin, and kanamycin (PSK) and were maintained at 37° C. in 5% CO2. Charcoal stripped (in house cell culture facility) and dialyzed FBS (Life Technologies; 509 26400-036) were used. Gemcitabine was obtained from the in house pharmacy. Rucaparib and trichostatin A were gifts.
(§3) Cell viability assays. For clonogenic assays, 1000 cells per well were seeded into 6 well plates on day 0. Cells were treated with gemcitabine at various doses on day 1 for 24 hours, Gemcitabine was washed out on day 2, and cells were allowed to grow for a subsequent 10 days before being fixed (10% methanol+10% acetic acid) and stained with crystal violet (0.4% in 20% ethanol) for colony counting and quantitation. For Rucaparib clonogenic assays, the drug was added at various doses 24 hours after cell plating, and cells were allowed to grow for a subsequent 10 days in the presence of Rucaparib. For TSA clonogenic assays, the drug was added for 4 hours prior to addition of gemcitabine or vehicle for another 18 hours before drugs were washed away, and cells were allowed to grow in drug-free medium for 10 days.

Assay [1] deals with Panc1 cells. In words: Cell viability (Cell Titer Glo) in siRNA screen. Conditions: Homo sapiens, PANC-1, read-out: sublethal dose (IC20). In kind it is cell-based. On the procedure:
Synthetic lethal RNAi Screen. High throughput RNAi was performed using the validated human genome-wide siRNA library version 2.0 obtained from Dharmacon. This is a SMARTPool (4 siRNAs per gene) library that targeted ^˜23,500 of the annotated genes, and has been validated to deplete mRNA by 75%. Stock siRNA was diluted in siRNA buffer (Dharmacon; B-002000-UB-100) and 10 ng of siRNA was reverse transfected into Panc1 cells seeded into white Corning 384-well plates (Fisher Scientific; 07-201-320) in quadruplicates on day 0. Briefly, diluted Dharmafect1 reagent (Dharmacon; T-2001-01) in OptiMEM (Life Technologies; 51985091) was added to the wells and allowed to complex with siRNA for 20 minutes at room temperature. Panc1 cells in 100 μl of DMEM/10% FBS media without PSK were mixed with 100 μl of transfection mix at 1000 cells/well. Plates were incubated at 37° C. with 5% CO2. […] Total viable cell number was determined by the addition of Cell Titer Glo (Promega; G7573) and relative luminescence units (RLU) were measured using an EnVision plate reader (Perkin Elmer). […] The effect of gemcitabine treatment on viability was measured based on the normalized viabilities in the drug treated and vehicle wells using Limma, Statistical significance was measured by p-values controlled for the false discovery rate (FDR) using the Benjamini-Hochberg step-up method to account for multiple testing. […]

Assay [2] has as its system BxPC3 cells. In words: TSA clonogenic assay (TSA + gemcitabine). In kind it is cell-based. Conditions: Homo sapiens. As for the experimental part:
as §3
To test the functional relevance of the TSA mediated Rad51 foci formation in the VDR knockdown cells, whether TSA altered the sensitivity to gemcitabine was investigated. […] Parental cell sensitivity to gemcitabine was increased by TSA treatments at the concentrations tested (p=0.02).

Assay [3] relates to Panc1 cells. In words: Clonogenic survival assay, gemcitabine. In kind it is cell-based, human. Conditions: for IC50: Homo sapiens. As for the experimental part: as §2, §3
The test system of assay [4] is BxPC3 cells. Put plainly: Western blot of Rad51 and γH2AX in supernatant and chromatin fractions. The format is cell-based, human. Conditions: gemcitabine for 18 hours. On the procedure: as §1

From patent US10449200B2, “Combined inhibition of the vitamin D receptor and poly(ADP) ribose polymerase (PARP) in the treatment of cancer” (Institute for Cancer Research, priority 2014, dated 2019) come the findings set out here.

Where two headings read alike, the source gives them in different places.

`Nc1ccn([C@@H]2O[C@H](CO)[C@@H](O)C2(F)F)c(=O)n1` [gemcitabine]: the “VDR levels after overnight treatment with gemcitabine” value in the assay on VDR (BXPC3 cells) is listed as “No noticeable increase”; with VDR (CFPAC1 cells), “increased”; with VDR (Panc1 cells), “increased”. The half-maximal inhibitory concentration (IC50) in the assay with CFPAC1 cells (CFPAC-1, CFPAC1, VDR depleted (VDR siRNA), read-out: IC50 gemcitabine) was about 20 nM; with CFPAC1 cells (CFPAC-1, CFPAC1, control siRNA, read-out: mean IC50 gemcitabine), about 45 nM; with CFPAC1 cells (CFPAC-1, CFPAC1 cells, read-out: IC50 gemcitabine), about 45 nM; in the assay on BxPC3 cells [2] (BXPC-3, BxPC3 VDRkd cells, with TSA (500 nM), read-out: IC50 of gemcitabine) it was 50 nM; with BxPC3 cells [2] (BXPC-3, BxPC3 VDRkd cells, without TSA, read-out: IC50 of gemcitabine), 50 nM; in the assay on BxPC3 cells [2] (BXPC-3, BxPC3 parental cells, gemcitabine alone, read-out: IC50 gemcitabine), about 200 nM. Also, the IC50 is 100 nM with BxPC3 cells [2] (BXPC-3, BxPC3 parental cells, gemcitabine plus TSA (500 nM), read-out: IC50 gemcitabine); about 18 nM with Panc1 cells [3] (PANC-1, Panc1, VDR knockdown (siRNA)); about 19 nM in the assay with Panc1 cells [3] (PANC-1, Panc1, control cells (control shRNA)); about 30 nM in the assay with Panc1 cells [3] (PANC-1, Panc1, control transfected); about 16 nM in the assay on Panc1 cells [3] (PANC-1, Panc1, p300 knockdown); about 250 nM with Panc1 cells [3] (PANC-1, Panc1 transfected with WT-VDR (overexpression)). Moreover, the IC50 in the assay on Panc1 cells [3] (PANC-1, Panc1 transfected with vector) is about 25 nM; in the assay on Panc1 cells [3] (PANC-1, Panc1 cells), about 30 nM. Also, the IC20 in the assay with Panc1 cells [1] came out at 50 nM. Moreover, the “cells survived (colony formation) compared to control samples treated with gemcitabine” value is on record as 3% with Panc1 cells [3] (Panc1, Chk1 siRNA, 50 nM gemcitabine 24 hours) and 8% in the assay on Panc1 cells [3] (Panc1, VDR siRNA, 50 nM gemcitabine 24 hours). The “colony formation, vehicle versus gemcitabine” value in the assay with Panc1 cells [3] (Panc1, control siRNA, 50 nM gemcitabine 24 hours) is reported as “did not differ significantly”. Further, in the assay with Panc1 cells [3] (Panc1 cells with increased VDR levels), the “increase of gemcitabine IC50 over controls” value is about 10 fold. The “Rad51 and H2AX in whole cell extracts (supernatants), parental versus BxPC3 VDRkd” value with BxPC3 cells [4] is “equivalent amounts”. Besides, the “Rad51 and phospho-γH2AX in chromatin fractions, VDRkd compared to parental BxPC3” value in the assay with BxPC3 cells [4] is given as “very low amounts”.

Usually IC50 stands for the midpoint of a concentration-inhibition curve. In general, IC20 refers to the concentration at which the effect reaches the 20% level.
